Measured values taken from patent US20220117919A1, “ENHANCED BIOAVAILABILITY OF N-(2,6-BIS(1-METHYLETHYL)PHENYL)-N'-((1-(4-(DIMETHYLAMINO)-PHENYL)CYCLOPENTYL)METHYL)UREA HYDROCHLORIDE” (The Regents of the University of Michigan, priority 2015, published 2022).
Several values for one entry are separate records, joined by “and”; a condition that tells them apart may be missing. Identical values can stand only once. Counter-ions that a name gives are not always drawn. Like-named read-outs stand apart in the source and are kept apart here.

Assay: Food and acidic beverage effect on bioavailability of ATR-101 tablets, 3-way crossover plasma PK study
Assay type: in vivo, human
Details: for kel: in h-1; for AUC0-t Ratio C/A: fasting with acidic beverage vs fasting with water; for AUC0-t Ratio B/C: fed with water vs fasting with acidic beverage; for AUC0-t Ratio B/A: fed with water vs fasting with water
Procedure: To evaluate the effects of food and of an acidic beverage on bioavailability of ATR-101 tablets prepared according to Example 2 (see Table 2), an open-label, randomized, 3-period, 3-way crossover, 3-sequence study was carried out with fourteen healthy, adult, non-tobacco using male and female (non-childbearing potential only) human subjects.
Three different treatments A, B, and C were administered as follows:
Treatment A: 500 mg ATR-101 (1×500 mg tablet) administered with water at Hour 0 on Day 1 following an overnight fast.
Treatment B: 500 mg ATR-101 (1×500 mg tablet) administered with water at Hour 0, 30 minutes after the start of a high-fat breakfast, on Day 1.
Treatment C: 500 mg ATR-101 (1×500 mg tablet) administered with Coca-Cola® Classic at Hour 0 on Day 1 following an overnight fast.
On Day 1 of Period 1, subjects were randomized to one of 3 treatment sequences: ABC, BCA, or CBA. For Treatments A and B, ATR-101 was administered orally with approximately 240 mL of water. For Treatment C, ATR-101 was administered orally with approximately 240 mL of Coca-Cola® Classic. Water (except water provided with dosing for Treatments A and B) was restricted 1 hour prior to and 1 hour after each study drug administration, but was allowed ad libitum at all other times. Other fluids were given as part of the standard meals (including the breakfast administered prior to study drug dosing for Treatment B) and/or snacks, but were restricted at all other times (except for the Coca-Cola® Classic beverage provided with dosing in Treatment C) throughout the confinement period.
For Treatments A and C, subjects fasted overnight for at least 10 hours prior to study drug administration and continued the fast for at least 4 hours post-dose.
For Treatment B, subjects were required to fast overnight for at least 10 hours until 30 minutes prior to study drug administration, when they were given breakfast which was entirely consumed within 30 minutes. A representative breakfast includes 2 slices of buttered toast, 2 fried eggs, 2 strips of bacon, 4 oz of hash brown potatoes, and 240 mL of whole milk.
On Day 1 of each period, a standard lunch and dinner was provided at approximately 4 and 9 hours post-dose, respectively, and a snack was also offered at approximately 12 hours post-dose. On other days when confined in the CRU, standard meals and/or snacks were provided at appropriate times. When confined, subjects were required to fast from all food and drink except water between meals and snacks served at the clinical research unit.
Each meal and/or snack served at the clinical research unit was standardized and was similar in caloric content and composition (except for the meal served as part of Treatment B) and was taken at approximately the same time in each period.
For all subjects, blood samples for the determination of ATR-101 plasma concentration were collected at pre-dose and 0.5, 1, 1.5, 2, 2.5, 3, 3.5, 4, 5, 6, 8, 12, 16, 24, 36, and 48 hours post-dose. PK parameters for plasma ATR-101 were calculated as follows: • AUC0-t: The area under the plasma concentration-time curve, from time 0 to the last measurable non-zero concentration, was calculated by the linear trapezoidal method. • AUC0-inf: The area under the plasma concentration-time curve from time 0 extrapolated to infinity. AUC0-inf was calculated as the sum of AUC0-t plus the ratio of the last measurable plasma concentration to the elimination rate constant. • AUC%extrap: Percent of AUC0-inf extrapolated, represented as
[formula] • Cmax: Maximum observed concentration. • tmax: Time to reach Cmax. If the maximum value occurred at more than one time point, tmax was defined as the first time point with this value. • ke1: Apparent first-order terminal elimination rate constant calculated from a semi-log plot of the plasma concentration versus time curve. […]

[1] = Treatment C (fasting with acidic beverage), single oral 500 mg, Minimum
[2] = Treatment C (fasting with acidic beverage, Coca-Cola Classic), single oral 500 mg, individual subject, hydrochloride
[3] = individual subject, hydrochloride

tmax [1]: 1.50 h
kel [1]: 0.0249
AUC0-inf (both sexes, human, plasma, po, 500 mg, Treatment A (fasting with water), single oral 500 mg, Geometric Mean, read-out: AUC0-inf): 3480 ng·h/mL
AUC0-t (both sexes, human, plasma, po, 500 mg, Treatment A (fasting with water), single oral 500 mg, Geometric Mean, read-out: AUC0-t): 2710 ng·h/mL
Cmax (both sexes, human, plasma, po, 500 mg, Treatment A (fasting with water), single oral 500 mg, Geometric Mean, read-out: Cmax): 469 ng/mL
half-life (both sexes, human, plasma, po, 500 mg, Treatment A (fasting with water), single oral 500 mg, Mean): 1070 min
AUC0-inf (both sexes, human, plasma, po, 500 mg, Treatment A (fasting with water), single oral 500 mg, Mean, read-out: AUC0-inf): 3620 ng·h/mL
AUC0-t (both sexes, human, plasma, po, 500 mg, Treatment A (fasting with water), single oral 500 mg, Mean, read-out: AUC0-t): 2970 ng·h/mL
Cmax (both sexes, human, plasma, po, 500 mg, Treatment A (fasting with water), single oral 500 mg, Mean, read-out: Cmax): 575 ng/mL
half-life (both sexes, human, plasma, po, 500 mg, Treatment A (fasting with water), single oral 500 mg, Median): 1090 min
AUC0-inf (both sexes, human, plasma, po, 500 mg, Treatment A (fasting with water), single oral 500 mg, Median, read-out: AUC0-inf): 3400 ng·h/mL
AUC0-t (both sexes, human, plasma, po, 500 mg, Treatment A (fasting with water), single oral 500 mg, Median, read-out: AUC0-t): 2620 ng·h/mL
Cmax (both sexes, human, plasma, po, 500 mg, Treatment A (fasting with water), single oral 500 mg, Median, read-out: Cmax): 542 ng/mL
tmax (both sexes, human, plasma, po, 500 mg, Treatment A (fasting with water), single oral 500 mg, Median, read-out: tmax): 2 h
AUC0-inf (both sexes, human, plasma, po, 500 mg, Treatment B (fed with water), single oral 500 mg, Geometric Mean, read-out: AUC0-inf): 6740 ng·h/mL
AUC0-t (both sexes, human, plasma, po, 500 mg, Treatment B (fed with water), single oral 500 mg, Geometric Mean, read-out: AUC0-t): 6200 ng·h/mL
Cmax (both sexes, human, plasma, po, 500 mg, Treatment B (fed with water), single oral 500 mg, Geometric Mean, read-out: Cmax): 1180 ng/mL
half-life (both sexes, human, plasma, po, 500 mg, Treatment B (fed with water), single oral 500 mg, Mean): 1220 min
AUC0-inf (both sexes, human, plasma, po, 500 mg, Treatment B (fed with water), single oral 500 mg, Mean, read-out: AUC0-inf): 7130 ng·h/mL
AUC0-t (both sexes, human, plasma, po, 500 mg, Treatment B (fed with water), single oral 500 mg, Mean, read-out: AUC0-t): 6560 ng·h/mL
Cmax (both sexes, human, plasma, po, 500 mg, Treatment B (fed with water), single oral 500 mg, Mean, read-out: Cmax): 1250 ng/mL
half-life (both sexes, human, plasma, po, 500 mg, Treatment B (fed with water), single oral 500 mg, Median): 1130 min
AUC0-inf (both sexes, human, plasma, po, 500 mg, Treatment B (fed with water), single oral 500 mg, Median, read-out: AUC0-inf): 6810 ng·h/mL
AUC0-t (both sexes, human, plasma, po, 500 mg, Treatment B (fed with water), single oral 500 mg, Median, read-out: AUC0-t): 6110 ng·h/mL
Cmax (both sexes, human, plasma, po, 500 mg, Treatment B (fed with water), single oral 500 mg, Median, read-out: Cmax): 1150 ng/mL
tmax (both sexes, human, plasma, po, 500 mg, Treatment B (fed with water), single oral 500 mg, Median, read-out: tmax): 2.75 h
AUC0-inf (both sexes, human, plasma, po, 500 mg, Treatment C (fasting with acidic beverage), single oral 500 mg, Geometric Mean, read-out: AUC0-inf): 3720 ng·h/mL
AUC0-t (both sexes, human, plasma, po, 500 mg, Treatment C (fasting with acidic beverage), single oral 500 mg, Geometric Mean, read-out: AUC0-t): 3340 ng·h/mL
Cmax (both sexes, human, plasma, po, 500 mg, Treatment C (fasting with acidic beverage), single oral 500 mg, Geometric Mean, read-out: Cmax): 558 ng/mL
half-life (both sexes, human, plasma, po, 500 mg, Treatment C (fasting with acidic beverage), single oral 500 mg, Mean): 1170 min
AUC0-inf (both sexes, human, plasma, po, 500 mg, Treatment C (fasting with acidic beverage), single oral 500 mg, Mean, read-out: AUC0-inf): 4240 ng·h/mL
AUC0-t (both sexes, human, plasma, po, 500 mg, Treatment C (fasting with acidic beverage), single oral 500 mg, Mean, read-out: AUC0-t): 3830 ng·h/mL
Cmax (both sexes, human, plasma, po, 500 mg, Treatment C (fasting with acidic beverage), single oral 500 mg, Mean, read-out: Cmax): 728 ng/mL
half-life (both sexes, human, plasma, po, 500 mg, Treatment C (fasting with acidic beverage), single oral 500 mg, Median): 1100 min
AUC0-inf (both sexes, human, plasma, po, 500 mg, Treatment C (fasting with acidic beverage), single oral 500 mg, Median, read-out: AUC0-inf): 4260 ng·h/mL
AUC0-t (both sexes, human, plasma, po, 500 mg, Treatment C (fasting with acidic beverage), single oral 500 mg, Median, read-out: AUC0-t): 3800 ng·h/mL
Cmax (both sexes, human, plasma, po, 500 mg, Treatment C (fasting with acidic beverage), single oral 500 mg, Median, read-out: Cmax): 666 ng/mL
tmax (both sexes, human, plasma, po, 500 mg, Treatment C (fasting with acidic beverage), single oral 500 mg, Median, read-out: tmax): 2 h
AUC0-t Ratio C/A (Geometric Mean): 126%
AUC0-t Ratio C/A (Maximum): 588%
AUC0-t Ratio C/A (Mean): 160%
AUC0-t Ratio C/A (Median): 131%
AUC0-t Ratio C/A (Minimum): 23.3%
increase in systemic exposure (fed state (Treatment B) compared to fasting state with acidic beverage (Treatment C)): 108%
increase in systemic exposure (fed state (Treatment B) compared to fasting state with water (Treatment A)): 153%
AUC0-t Ratio B/C (Geometric Mean): 184%
AUC0-t Ratio B/C (Maximum): 615%
AUC0-t Ratio B/C (Mean): 208%
AUC0-t Ratio B/C (Median): 156%
AUC0-t Ratio B/C (Minimum): 83.2%
AUC0-t Ratio B/A (Geometric Mean): 233%
AUC0-t Ratio B/A (Maximum): 490%
AUC0-t Ratio B/A (Mean): 253%
AUC0-t Ratio B/A (Median): 211%
AUC0-t Ratio B/A (Minimum): 132%
Structure (SMILES): CC(C)c1cccc(C(C)C)c1NC(=O)NCC1(c2ccc(N(C)C)cc2)CCCC1 [ATR-101, N-(2,6-bis(1-methylethyl)phenyl)-N′-((1-(4-(dimethylamino)-phenyl)cyclopentyl)methyl)urea hydrochloride]
AUC0-inf [2]: 728 and 3990 and 5760 and 2610 and 5420 and 4530 and 6970 and 2880 and 3670 and 2670 and 6680 and 5020
AUC0-t [2]: 572 and 5100 and 2510 and 4940 and 4110 and 6430 and 2360 and 3660 and 3400 and 2250 and 6310 and 4300
AUC% extrap [2]: 21.5% and 4.67% and 11.3% and 3.84% and 8.70% and 9.20% and 7.61% and 18.3% and 7.31% and 15.6% and 5.52% and 14.2%
Cmax [2]: 19.8 ng/mL and 734 ng/mL and 1030 ng/mL and 438 ng/mL and 948 ng/mL and 645 ng/mL and 952 ng/mL and 461 ng/mL and 602 ng/mL and 525 ng/mL and 1550 ng/mL and 893 ng/mL
t1/2 [2]: 17.5 h and 13.8 h and 8.2 h and 14.0 h and 18.7 h and 20.1 h and 7.9 h and 16.0 h and 26.9 h and 14.2 h and 27.1 h
tmax [2]: 6.00 h and 3.00 h and 1.50 h and 2.50 h
kel [2]: 0.0397 and 0.0501 and 0.0380 and 0.0496 and 0.0371 and 0.0345 and 0.0353 and 0.0249 and 0.0433 and 0.0258 and 0.0488 and 0.0256
AUC0-t Ratio C/A [3]: 23.3% and 120% and 134% and 101% and 588% and 187% and 132% and 155% and 89.3% and 130% and 143% and 111%
AUC0-t Ratio B/C [3]: 615% and 156% (2×) and 258% and 210% and 83.2% and 168% and 131% and 267% and 148% and 211% and 147% and 153%
AUC0-t Ratio B/A [3]: 144% and 187% and 346% and 212% and 490% and 313% and 173% and 292% and 415% and 132% and 203% and 211% and 169%
